In patent US8946438B2, “Benzamides, production thereof, and use thereof as medicaments” (Boehringer Ingelheim International GmbH, priority 2008, dated 2015) one finds inhibition data, which are given here for 6 compounds.

SMILES strings stand for the structures.

In the assay the target is p38 MAP-kinase (Homo sapiens, UniProt Q16539). The assay is described as follows: Enzymatic assay: inhibition of p38 MAP-kinase (phosphorylation of GST-tagged ATF2, chemoluminescence bead readout). The class given is biochemical. The following applies: inhibitor 1 μM; activated p38 MAP-kinase 1 nM; 4 h preincubation; ATP 100 μM; ATF2 10 nM; read-out: % inhibitory effect at 1 μM. Put shortly:
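Activated human p38 MAP-kinase (1 nM) preincubated 4 h at ambient temperature with compound at 1 μM in HEPES pH 7, MgCl2, DTT, Tween20. Then reacted 1 h with GST-ATF2 (10 nM) and ATP (100 μM). Phospho-ATF2 read by bead chemoluminescence at 520-620 nm, given as % inhibition at 1 μM versus kinase-free background.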

p38 MAP-kinase, sequence (Q16539 whole entry): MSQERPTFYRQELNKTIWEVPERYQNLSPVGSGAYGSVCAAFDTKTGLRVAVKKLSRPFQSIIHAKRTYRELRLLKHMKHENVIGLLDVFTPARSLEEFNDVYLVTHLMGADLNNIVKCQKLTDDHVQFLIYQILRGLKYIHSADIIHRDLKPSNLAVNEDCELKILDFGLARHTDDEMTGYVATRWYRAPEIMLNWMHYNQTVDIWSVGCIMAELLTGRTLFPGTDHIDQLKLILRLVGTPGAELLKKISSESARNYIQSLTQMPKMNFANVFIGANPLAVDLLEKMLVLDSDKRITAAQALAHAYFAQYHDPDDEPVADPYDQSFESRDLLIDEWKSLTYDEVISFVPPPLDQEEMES

Take `COc1c(NC(=O)c2ccc(C)c(Oc3cc(CN4CCOCC4)ncn3)c2)cc(C(C)(C)C)cc1NS(C)(=O)=O` [Example 8, N-(5-tert-butyl-3-methanesulphonylamino-2-methoxy-phenyl)-4-methyl-3-(6-morpholin-4-ylmethyl-pyrimidin-4-yloxy)-benzamide]: the inhibition at 1 µM worked out at 95%.

Turning to `COc1c(NC(=O)c2ccc(C)c(Oc3cc(CC4CCN(C)CC4)ncn3)c2)cc(C(C)(C)C)cc1NS(C)(=O)=O` [Example 9, N-(5-tert-butyl-3-methanesulphonylamino-2-methoxy-phenyl)-4-methyl-3-[6-(1-methyl-piperidin-4-ylmethyl)-pyrimidin-4-yloxy]-benzamide], the inhibition at 1 µM is 98.4%.

For the compound `COc1c(NC(=O)c2ccc(Cl)c(Oc3ccnc(NC4CCN(C)CC4)c3)c2)cc(C(C)(C)C)cc1NS(C)(=O)=O` [Example 10, N-(5-tert-butyl-3-methanesulphonylamino-2-methoxy-phenyl)-4-chloro-3-[2-(1-methyl-piperidin-4-ylamino)-pyridin-4-yloxy]-benzamide], the inhibition at 1 µM came to 99.6%.

Turning to `COc1c(NC(=O)c2ccc(Cl)c(Oc3cc(NC4CCNCC4)ncn3)c2)cc(C(C)(C)C)cc1NS(C)(=O)=O` [Example 11, N-(5-tert-butyl-3-methanesulphonylamino-2-methoxy-phenyl)-4-chloro-3-[6-(piperidin-4-ylamino)-pyrimidin-4-yloxy]-benzamide], the inhibition at 1 µM was determined as 99.2%.

As to `COc1c(NC(=O)c2ccc(C)c(Oc3ccnc(CC4CCCN(C)CC4)c3)c2)cc(C(C)(C)C)cc1NS(C)(=O)=O` (stereo not drawn) [Example 12, N-(5-tert-butyl-3-methanesulphonylamino-2-methoxy-phenyl)-4-methyl-3-[2-(1-methyl-azepan-4-ylmethyl)-pyridin-4-yloxy]-benzamide], the inhibition at 1 µM is 97.5%.

As to `COc1c(CO)cc(C(C)(C)C)cc1NC(=O)c1ccc(C)c(Oc2ccnc(CN3CCN(C)CC3)n2)c1` [Example 13, N-(5-tert-butyl-3-hydroxymethyl-2-methoxy-phenyl)-4-methyl-3-[2-(4-methyl-piperazin-1-ylmethyl)-pyrimidin-4-yloxy]-benzamide], the inhibition at 1 µM was found to be 98.2%.
